PubChem BioAssay (NCI)
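Step 1: Grow cells in 96-well plates. Step 2: Expose to compound for 48 hours at 5 concentrations. Step 3: Interpolate endpoints linearly; if unreached, use highest concentration. TGI denotes the concentration required for complete inhibition of growth.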

Legend:
Assay in all cases: DTP human tumour cell line panel, 48 h
786-0 renal = system: 786-0 renal
A498 renal = system: A498 renal
A549 NSCLC = system: A549 NSCLC
ACHN renal = system: ACHN renal
BT-549 breast = system: BT-549 breast
CCRF-CEM leukemia = system: CCRF-CEM leukemia
COLO 205 colon = system: COLO 205 colon
DU-145 prostate = system: DU-145 prostate
EKVX NSCLC = system: EKVX NSCLC
HCC-2998 colon = system: HCC-2998 colon
HCT-116 colon = system: HCT-116 colon
HCT-15 colon = system: HCT-15 colon
HL-60(TB) leukemia = system: HL-60(TB) leukemia
HS 578T breast = system: HS 578T breast
HT29 colon = system: HT29 colon
IGROV1 ovarian = system: IGROV1 ovarian
K-562 leukemia = system: K-562 leukemia
KM12 colon = system: KM12 colon
LOX IMVI melanoma = system: LOX IMVI melanoma
M14 melanoma = system: M14 melanoma
MALME-3M melanoma = system: MALME-3M melanoma
MCF7 breast = system: MCF7 breast
MDA-MB-231 breast = system: MDA-MB-231 breast
MDA-MB-435 = system: MDA-MB-435
MDA-N = system: MDA-N
MOLT-4 leukemia = system: MOLT-4 leukemia
NCI-H226 lung = system: NCI-H226 lung
NCI-H23 lung = system: NCI-H23 lung
NCI-H460 lung = system: NCI-H460 lung
NCI-H522 lung = system: NCI-H522 lung
NCI/ADR-RES ovarian = system: NCI/ADR-RES ovarian
OVCAR-3 ovarian = system: OVCAR-3 ovarian
OVCAR-5 ovarian = system: OVCAR-5 ovarian
OVCAR-8 ovarian = system: OVCAR-8 ovarian
PC-3 prostate = system: PC-3 prostate
RPMI-8226 leukemia = system: RPMI-8226 leukemia
RXF 393 renal = system: RXF 393 renal
SF-268 CNS = system: SF-268 CNS
SF-295 CNS = system: SF-295 CNS
SF-539 CNS = system: SF-539 CNS
SK-MEL-2 melanoma = system: SK-MEL-2 melanoma
SK-MEL-28 melanoma = system: SK-MEL-28 melanoma
SK-MEL-5 melanoma = system: SK-MEL-5 melanoma
SK-OV-3 ovarian = system: SK-OV-3 ovarian
SN12C renal = system: SN12C renal
SNB-19 CNS = system: SNB-19 CNS
SR leukemia = system: SR leukemia
SW-620 colon = system: SW-620 colon
TK-10 renal = system: TK-10 renal
U251 CNS = system: U251 CNS
UACC-257 melanoma = system: UACC-257 melanoma
UACC-62 melanoma = system: UACC-62 melanoma
UO-31 renal = system: UO-31 renal

`O=C(O)Cc1c(-c2ccc([N+](=O)[O-])cc2)c(=O)oc2cc(O)ccc12` was tested, and the TGI (786-0 renal) was greater than 100 µM, the TGI (A498 renal) was 70.2 µM and the TGI (A549 NSCLC) was greater than 100 µM. It also gave a TGI (ACHN renal) of 91.8 µM, a TGI (BT-549 breast) of 59.1 µM and a TGI (CCRF-CEM leukemia) of 88.8 µM. It also gave a TGI (COLO 205 colon) greater than 100 µM, a TGI (DU-145 prostate) greater than 100 µM and a TGI (EKVX NSCLC) of 83 µM. The TGI (HCC-2998 colon) was 55.5 µM, the TGI (HCT-116 colon) was 73.6 µM and the TGI (HCT-15 colon) was 75.7 µM. It also gave a TGI (HL-60(TB) leukemia) of 39.4 µM, a TGI (HS 578T breast) of 71.9 µM and a TGI (HT29 colon) greater than 100 µM. For the same compound, the TGI (IGROV1 ovarian) was greater than 100 µM, the TGI (K-562 leukemia) was greater than 100 µM and the TGI (KM12 colon) was 93.5 µM. For the same compound, the TGI (LOX IMVI melanoma) was greater than 100 µM, the TGI (M14 melanoma) was greater than 100 µM and the TGI (MALME-3M melanoma) was 59.9 µM. For the same compound, the TGI (MCF7 breast) was 75.7 µM, the TGI (MDA-MB-231 breast) was greater than 100 µM and the TGI (MDA-MB-435) was 93.9 µM. The TGI (MDA-N) was greater than 100 µM, the TGI (MOLT-4 leukemia) was 26.8 µM and the TGI (NCI-H226 lung) was greater than 100 µM. For the same compound, the TGI (NCI-H23 lung) was greater than 100 µM, the TGI (NCI-H460 lung) was greater than 100 µM and the TGI (NCI-H522 lung) was 91.3 µM. It also gave a TGI (NCI/ADR-RES ovarian) of 54.6 µM, a TGI (OVCAR-3 ovarian) of 46.2 µM and a TGI (OVCAR-5 ovarian) of 98.9 µM. For the same compound, the TGI (OVCAR-8 ovarian) was 74.1 µM, the TGI (PC-3 prostate) was 94.5 µM and the TGI (RPMI-8226 leukemia) was 61.7 µM. The TGI (RXF 393 renal) was greater than 100 µM, the TGI (SF-268 CNS) was greater than 100 µM and the TGI (SF-295 CNS) was 49.9 µM. For the same compound, the TGI (SF-539 CNS) was 82 µM, the TGI (SK-MEL-2 melanoma) was 50.7 µM and the TGI (SK-MEL-28 melanoma) was greater than 100 µM. The TGI (SK-MEL-5 melanoma) was 33.3 µM, the TGI (SK-OV-3 ovarian) was 90 µM and the TGI (SN12C renal) was greater than 100 µM. The TGI (SNB-19 CNS) was greater than 100 µM, the TGI (SR leukemia) was greater than 100 µM and the TGI (SW-620 colon) was greater than 100 µM. The TGI (TK-10 renal) was greater than 100 µM, the TGI (U251 CNS) was 53.5 µM and the TGI (UACC-257 melanoma) was 53.5 µM. It also gave a TGI (UACC-62 melanoma) greater than 100 µM and a TGI (UO-31 renal) of 83.6 µM.
